# Measurements taken from patent US20250382322A1, “DIAGNOSTICS FOR DETECTING ECTO-5'-NUCLEOTIDASE (CD73)” (EBERHARD KARLS UNIVERSITÄT TÜBINGEN, priority 2022, published 2025).
# Target: T1, native membrane-anchored human CD73 (in MDA-MB-231 cell membrane preparations) (Homo sapiens, UniProt P21589)
# T1 construct: membrane preparations of MDA-MB-231 cells; endogenous in cells; host or cells: MDA-MB-231 cell membrane preparations
# T1 sequence (P21589 27-549 limits assumed): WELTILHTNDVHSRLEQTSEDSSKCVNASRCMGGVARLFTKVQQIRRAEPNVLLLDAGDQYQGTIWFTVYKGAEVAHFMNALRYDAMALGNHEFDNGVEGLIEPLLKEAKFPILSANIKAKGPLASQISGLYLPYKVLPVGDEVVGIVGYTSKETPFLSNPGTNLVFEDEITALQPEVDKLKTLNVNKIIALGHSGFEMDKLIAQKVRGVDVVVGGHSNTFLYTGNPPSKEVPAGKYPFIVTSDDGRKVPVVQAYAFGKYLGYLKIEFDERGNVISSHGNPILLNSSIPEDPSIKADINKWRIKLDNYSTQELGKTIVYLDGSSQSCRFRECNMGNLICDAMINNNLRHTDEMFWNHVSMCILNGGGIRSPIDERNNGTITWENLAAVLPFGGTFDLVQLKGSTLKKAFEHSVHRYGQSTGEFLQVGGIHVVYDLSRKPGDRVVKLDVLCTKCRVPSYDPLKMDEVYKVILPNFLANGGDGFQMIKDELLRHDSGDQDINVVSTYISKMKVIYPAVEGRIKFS
# Assay: CD73 enzyme inhibition assay with [2,8-3H]AMP, MDA-MB-231 membrane preparations
# Format: biochemical
# Conditions: [2,8-3H]AMP (5 μM) as substrate, read-out: Human CD73 MDA-MB-231 Ki ± SEM
# Experimental: Compound 2b, its precursor 1, and 20 were investigated for their CD73-inhibitory potency using tritium-labeled AMP as a substrate.^20 After incubation with CD73, non-hydrolyzed substrate and inorganic phosphate were precipitated using a solution of lanthanum chloride, and the precipitate was separated from the solution containing the reaction product [2,8-^3H]adenosine by filtration through GF/B glass fiber filters (WhatmanTM GE Healthcare, Chicago, IL, USA) using a cell harvester (M-48, Brandel, Gaitherburg, MD, USA). The filtrates (ca. 1.8 mL each) were transferred to scintillation vials, scintillation cocktail ULTIMA Gold XR (PerkinElmer, Waltham, MA, USA) was added (5 mL), and the radioactivity esd quantified by scintillation counting. CD73 preparations were (1) recombinant soluble human CD73,^13 (2) recombinant soluble rat CD73,^21 both expressed in Spodoptera frugiperda 9 (Sf) cells, (3) membrane preparations of MDA-MB-231 cells,^16 a human triple-negative breast cancer cell line with high expression of CD73,^18 and (4) membrane preparations of the 4T1.2 cell line, a mouse CD73-expressing breast cancer cell line.^22 The potency of the compounds was determined by measurements of full concentration-inhibition curves. K values were calcuated from the obtained IC50 values employing the Cheng-Prusoff equation.^23 […]
row,Ki,Compound
1,6.76 ± 1.25 nM,"O=C(NCCCCCCNC(=O)c1ccc2c(c1)C1(OC2=O)c2ccc(O)cc2Oc2cc(O)ccc21)c1ccc(CNc2nc(Cl)nc3c2ncn3[C@@H]2O[C@H](COP(=O)(O)CP(=O)(O)O)[C@@H](O)[C@H]2O)cc1 [Compound 20, (((((2R,3S,4R,5R)-5-(2-chloro-6-((4-((6-(3′,6′-dihydroxy-3-oxo-3H-spiro[isobenzofuran-1,9′-xanthene]-6-carboxamido)-hexyl)carbamoyl)benzyl)amino)-9H-purin-9-yl)-3,4-dihydroxytetrahydrofuran-2-yl)methoxy)(hydroxy)phosphoryl)methyl)phosphonic acid]"
2,2.78 ± 0.47 nM,CCCN(Cc1ccc(-c2cn(CCF)nn2)cc1)c1nc(Cl)nc2c1ncn2[C@@H]1O[C@H](COP(=O)(O)CP(=O)(O)O)C(O)C1O (some centres unmarked) [Compound 2]
